Data on 5 compounds can be found in EP1986670B1, “INTESTINAL ALPHA-GLUCOSIDASE INHIBITORS AND A PROCESS FOR THE ISOLATION AND USE THEREOF” (Council of Scientific and Industrial Research, priority 2006, dated 2007).

The experiment deals with intestinal α-glucosidase. Description: Assay for intestinal α-glucosidase inhibition (p-nitrophenyl α-D-glucopyranoside substrate, read at 405 nm). The experiment is classed as biochemical, Rat. The settings on record: for Intestinal α-glucosidase inhibitory activity IC50 VALUES: crude enzyme from rat intestinal acetone powder, substrate p-nitrophenyl α-D-glucopyranoside, phosphate buffer pH6.8, triplicate. How it is done:
Example 2: Assay for intestinal α-glucosidase inhibition:- Rat intestinal acetone powder (sigma chemicals, USA) in normal saline in ration of 100:1 (w/v) was sonicated properly. Supernatant obtained after centrifugation at 3000rpm x 30 min at 25°C was treated as crude source of mammalian intestinal α-glucosidase 10 µL of test samples prepared from either extracts or the molecules (5mg/ml in DMSO) were incubated in 100µL of 100 mM phosphate buffer (pH6.8) with 50 µL of crude enzyme for 5 minutes. Thereafter 50 µL of substrate (5mM, p-nitrophenyl α-D-glucopyranoside prepared in the buffer)was added. After 5 minutes incubation, released p-nitro phenol was read at 405nm spectrophotometrically. For control and blank readings at the place of test samples 10 µL of DMSO and at the place of substrate 50 µL of buffer was added: In order to compensate interference from colored compounds there individual blanks were prepared and spectophotpmetric reading were evaluated accordingly the percent inhibition was calculated as follows:- […] [formula] and 50% inhibitory concentration(IC50)for test samples were calculated by applying suitable regression analysis from the data obtain from serial dilution of the test samples concentrations. Each test sample and other control samples were run in triplicate.

As for `O=c1cc(-c2ccccc2)oc2cc(O)c(O)c(O)c12` [Baicalein, 5,6,7-trihydroxy-2-phenyl-chromen-4-one], the “in vitro α-glucosidase inhibitory activity IC50” value amounted to 38.71 µg/mL and the “Intestinal α-glucosidase inhibitory activity IC50 VALUES” is 38.71 µg/mL.

For the compound `O=c1cc(-c2ccccc2)oc2cc(O)cc(O)c12` [Chrysin, 5,7-dihydroxy-2-phenyl-chromen-4-one], the “in vitro α-glucosidase inhibitory activity IC50” value was 57.59 µg/mL and the “Intestinal α-glucosidase inhibitory activity IC50 VALUES” came out at 57.59 µg/mL.

Consider `COc1cc(O)c2c(=O)cc(-c3ccccc3)oc2c1` [Methoxy chrysin, 5-hydroxy-7-methoxy-2-phenyl-chromen-4-one], for which the “Intestinal α-glucosidase inhibitory activity IC50 VALUES” worked out at 95.39 µg/mL.

As for `COc1c(O)cc2oc(-c3ccccc3)cc(=O)c2c1O` [Oroxylin-A, 5,7-Dihydroxy-6-methoxy-2-phenyl-chromen-4-one], the “in vitro α-glucosidase inhibitory activity IC50” value is 25.90 µg/mL and the “Intestinal α-glucosidase inhibitory activity IC50 VALUES” is 25.90 µg/mL.

As for `COC(=O)[C@H]1O[C@@H](Oc2cc3oc(-c4ccccc4)cc(=O)c3c(O)c2OC)[C@H](O)[C@@H](O)[C@@H]1O` [Oroxyloside methyl ester], the “in vitro α-glucosidase inhibitory activity IC50” value was 97.31 µg/mL and the “Intestinal α-glucosidase inhibitory activity IC50 VALUES” was 97.31 µg/mL.
